Data: PMC3582512, “Application of a Novel Microtitre Plate-Based Assay for the Discovery of New Inhibitors of DNA Gyrase and DNA Topoisomerase VI” (PLoS ONE, 2013)
“Also recorded” adds a separate entry of the source.

Key:
[1] = target: T1, E. coli DNA gyrase (Escherichia coli, UniProt P0AES4+P0AES6); settings: not studied further in this paper; cited from earlier work
T1 construct: made in house

[2] = target: T1, E. coli DNA gyrase; assay: DNA triplex-based microtitre plate screen, gyrase supercoiling; type: biochemical; settings: 25 µM compound, duplicate
Procedure: The triplex-based assay was conducted as previously described [45]–[47]. In brief, oligonucleotide TFO1 was immobilised onto a streptavidin-coated microtitre plate. Excess oligonucleotide was removed by washing with buffer. […] The reaction was stopped by the addition of a low pH, high salt buffer and triplex formation was allowed to occur for 30 min at room temperature. The DNA retained on the plate was stained with SYBR Gold (Sigma) dye and the fluorescence readings for each well read in a SpectraMax Gemini fluorimeter (Molecular Devices).
Twelve plates were screened in duplicate over three days manually using a multichannel pipette as previously described. […] Each plate contained 16 control reactions: eight positive for enzyme activity, which contained enzyme but no library compounds, and eight negative for enzyme activity, which lacked both enzyme and library compounds. All controls were carried out with 5% DMSO.

[3] = target: T2, M. mazei topo VI (Methanosarcina mazei, UniProt Q8PUB7+Q8PUB8); assay: Native gel shift assay, topo VI binding to 147 bp DNA fragment
T2 construct: His tag; made in house
T2 sequence (Q8PUB8 whole entry, the tested form may be a part): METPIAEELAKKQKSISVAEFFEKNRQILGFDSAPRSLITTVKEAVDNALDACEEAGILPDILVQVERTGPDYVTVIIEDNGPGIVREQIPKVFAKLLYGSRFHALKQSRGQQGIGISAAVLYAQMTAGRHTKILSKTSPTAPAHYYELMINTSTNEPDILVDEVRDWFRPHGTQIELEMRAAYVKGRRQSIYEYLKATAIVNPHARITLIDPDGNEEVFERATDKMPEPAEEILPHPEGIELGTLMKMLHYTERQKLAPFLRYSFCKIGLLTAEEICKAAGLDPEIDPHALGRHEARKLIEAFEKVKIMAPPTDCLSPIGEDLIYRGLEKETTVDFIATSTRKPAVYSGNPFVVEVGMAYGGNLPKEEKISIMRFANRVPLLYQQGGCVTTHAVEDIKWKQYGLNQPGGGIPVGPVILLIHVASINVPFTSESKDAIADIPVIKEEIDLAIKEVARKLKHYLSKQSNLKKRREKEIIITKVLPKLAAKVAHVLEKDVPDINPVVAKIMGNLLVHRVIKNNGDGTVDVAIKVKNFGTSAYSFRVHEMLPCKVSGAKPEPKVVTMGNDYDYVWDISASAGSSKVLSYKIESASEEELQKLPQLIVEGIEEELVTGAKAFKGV
T2 sequence (Q8PUB7 whole entry, the tested form may be a part): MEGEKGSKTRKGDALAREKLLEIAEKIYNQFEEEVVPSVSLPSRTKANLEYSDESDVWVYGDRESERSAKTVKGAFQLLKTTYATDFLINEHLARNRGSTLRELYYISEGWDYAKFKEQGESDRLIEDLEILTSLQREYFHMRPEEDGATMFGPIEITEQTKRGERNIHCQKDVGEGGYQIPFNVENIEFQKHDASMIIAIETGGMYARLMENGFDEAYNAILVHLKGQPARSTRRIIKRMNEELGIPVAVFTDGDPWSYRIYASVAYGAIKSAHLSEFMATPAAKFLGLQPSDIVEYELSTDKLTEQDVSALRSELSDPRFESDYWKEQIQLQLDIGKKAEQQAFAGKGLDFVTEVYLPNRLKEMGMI
Procedure: In order to test the effects of hit compounds upon DNA binding by topoisomerases, samples of enzyme and drug were prepared under the following conditions in a final volume of 10 μL: 1 nM 147 bp linear fragment of DNA derived from pBR322, [82] 50 mM Tris•HCl (pH 7.5), 100 mM KCl, 5 mM MgCl2, 2 mM DTT, 10% w/v glycerol. Samples were incubated for 30 min at room temperature before being run on a 5% (29:1) Protogel acrylamide (National Diagnostics) gel in 90 mM Tris·Borate, 5 mM MgCl2 at 150 V for 45 min. The DNA was stained by soaking in 2 µg/mL ethidium bromide for 10 min and visualised under UV light.

[4] = target: T2, M. mazei topo VI; assay: Agarose gel-based DNA relaxation assay; type: biochemical; settings: for IC50: gel relaxation assay, 1 unit (50 nM) topo VI, read-out: Approx. IC50 against M. mazei topo VI; for Mechanism (Topo VI): summary of mechanistic tests with M. mazei and S. shibatae topo VI
Procedure: (§1) The agarose gel-based assay was conducted as previously described, [44], [62]. In brief, topoisomerases were incubated with 0.5 µg of plasmid and the desired concentration of compound for 30 min at 37°C (for DNA gyrase and M. mazei topo VI) or 5 min at 75°C (for S. shibatae topo VI), in a total volume of 30 µL. […] Reactions were stopped by the addition of a loading buffer containing EDTA and the drug extracted by vortexing with either chloroform or aqueous butanol as required. In the case of M. mazei topo VI, it was necessary to include SDS in the loading buffer, at a final concentration of 1%. Samples were loaded onto a 1% agarose gel, run for the appropriate length of time and stained with ethidium bromide before visualisation on a UV transilluminator.

[5] = target: T3, S. shibatae topo VI (Saccharolobus shibatae, UniProt O05207+O05208); assay: Protection from ADPNP-induced, S. shibatae topo VI-mediated DNA cleavage; type: biochemical, Sulfolobus shibatae
T3 construct: gift from Danielle Gadelle (University of Paris XI, Orsay)
T3 sequence (O05207 whole entry): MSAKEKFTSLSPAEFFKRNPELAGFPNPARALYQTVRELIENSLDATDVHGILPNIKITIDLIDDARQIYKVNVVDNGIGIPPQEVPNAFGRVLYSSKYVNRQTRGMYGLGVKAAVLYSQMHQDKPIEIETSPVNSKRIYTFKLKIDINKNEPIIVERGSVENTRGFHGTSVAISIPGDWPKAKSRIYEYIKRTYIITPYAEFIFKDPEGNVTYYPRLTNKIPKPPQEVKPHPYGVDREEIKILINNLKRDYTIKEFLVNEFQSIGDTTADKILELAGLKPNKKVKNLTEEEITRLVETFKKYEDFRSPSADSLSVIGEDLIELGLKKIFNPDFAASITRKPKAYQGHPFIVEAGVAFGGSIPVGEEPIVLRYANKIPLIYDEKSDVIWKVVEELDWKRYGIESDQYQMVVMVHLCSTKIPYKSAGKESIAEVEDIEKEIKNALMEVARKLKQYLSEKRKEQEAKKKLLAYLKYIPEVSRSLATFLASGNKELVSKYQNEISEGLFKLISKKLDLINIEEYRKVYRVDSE
T3 sequence (O05208 whole entry): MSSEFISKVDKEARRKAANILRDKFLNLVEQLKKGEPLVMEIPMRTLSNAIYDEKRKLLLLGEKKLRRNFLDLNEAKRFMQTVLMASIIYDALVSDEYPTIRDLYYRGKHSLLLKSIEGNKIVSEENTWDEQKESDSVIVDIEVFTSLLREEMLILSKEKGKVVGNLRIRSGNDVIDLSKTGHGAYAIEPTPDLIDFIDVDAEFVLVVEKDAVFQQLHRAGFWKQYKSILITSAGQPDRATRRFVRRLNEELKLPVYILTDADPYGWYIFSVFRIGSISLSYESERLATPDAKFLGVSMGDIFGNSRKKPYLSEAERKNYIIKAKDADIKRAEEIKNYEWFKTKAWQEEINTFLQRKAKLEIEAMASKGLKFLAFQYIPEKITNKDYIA
Procedure: (§2) Assays to detect the stabilisation of cleavage complexes were identical to the protocol for topoisomerase activity detailed above, except as follows. Cleavage experiments with DNA gyrase were carried out in the absence of ATP and spermidine and 30 µL reactions were stopped with 3 µL 10% SDS and incubated with 3 µL 1 mg/mL proteinase K solution at 37°C for 1 h. For cleavage complex protection assays with suramin, the reaction buffer was modified to contain 4 mM CaCl2 rather than MgCl2.

[6] = tested on: E. coli strain NR698; assay: Bacterial growth inhibition, membrane-permeable strain; type: cell-based, Escherichia coli; settings: liquid and solid media
Procedure: (§3) For E. coli work, 10 mL cultures of E. coli MG1655 or NR698 were grown overnight at 37°C in LB medium. A 100 µL sample was then added to 10 mL of LB medium containing the desired concentration of compound. The culture was then allowed to grow at 37°C for 5 h and its OD600 measured every hour. For M. smegmatis, a 50 mL culture was grown for 48 h in Middlebrooks 7H11 medium at 37°C. A 100 µL sample was then added to 10 mL of Middlebrooks 7H11 containing the desired concentration of compound. The culture was then allowed to grow at 37°C for 9 h and its OD600 measured every three hours. For colony counting experiments M. smegmatis was grown for 48 h in 50 mL of Middlebrooks 7H9 medium at 37°C. A 100 µL sample was then added to 10 mL of Middlebrooks 7H9 medium containing the desired concentration test compound and allowed to grow at 37°C overnight. After 16 h, 20 µL samples were taken from these cultures and diluted 1 in 10,000 with Middlebrooks 7H9 medium. Petri dishes containing Middlebrooks 7H11 agar were prepared and 100 µL of each diluted culture was spread out. The plates were subsequently stored at 4°C. This was repeated every three hours for six hours, after which the plates were transferred to 37°C for 48 h. The numbers of colonies for each time point were counted manually.

[7] = target: T4, M. mazei DNA topoisomerase VI (Methanosarcina mazei, UniProt Q8PUB7+Q8PUB8); assay: DNA triplex-based microtitre plate screen, topo VI relaxation; type: biochemical; settings: 25 µM compound, duplicate
T4 construct: His tag; made in house
T4 sequence (Q8PUB8 whole entry): as the sequence (Q8PUB8 whole entry, the tested form may be a part) above
T4 sequence (Q8PUB7 whole entry): as the sequence (Q8PUB7 whole entry, the tested form may be a part) above
Procedure: The triplex-based assay was conducted as previously described [45]–[47]. In brief, oligonucleotide TFO1 was immobilised onto a streptavidin-coated microtitre plate. Excess oligonucleotide was removed by washing with buffer. Topoisomerase reactions were carried out in a 30 μL reaction volume containing 1–2 units topoisomerase and 1 μg relaxed or negatively supercoiled pNO1 under the published reaction conditions, [47]; gyrase supercoiling: 35 mM Tris•HCl (pH 7.5), 24 mM KCl, 4 mM MgCl2, 2 mM DTT, 1.8 mM spermidine, 1 mM ATP, 6.5% (w/v) glycerol, 0.1 mg/mL bovine serum albumin; topo VI relaxation: 20 mM bis-tris propane (pH 6.5), 100 mM potassium glutamate, 10 mM MgCl2, 1 mM DTT, 1 mM ATP. […] The DNA retained on the plate was stained with SYBR Gold (Sigma) dye and the fluorescence readings for each well read in a SpectraMax Gemini fluorimeter (Molecular Devices).
Twelve plates were screened in duplicate over three days manually using a multichannel pipette as previously described. […] Once the data had been collected from the screen, the fluorescence signals for the duplicates were averaged and converted into percentage inhibition using the positive and negative controls. […] To analyse the degree of separation between a negative and positive result the Z' factor [51] for the assay was calculated from the data for the control reactions (Equation 1). […]

[8] = tested on: M. smegmatis mc^2155; assay: Bacterial growth inhibition and colony counting; type: cell-based, Mycobacterium smegmatis
Procedure: as §3

[9] = target: T1, E. coli DNA gyrase; assay: Gel-based gyrase-mediated DNA cleavage assay; type: biochemical; settings: absence of ATP
Procedure: as §2

[10] = tested on: E. coli MG1655; assay: Bacterial growth inhibition; type: cell-based, Escherichia coli; settings: liquid and solid media
Procedure: as §3

[11] = target: T1, E. coli DNA gyrase; assay: Agarose gel-based DNA supercoiling assay; type: biochemical
Procedure: as §1

T1 sequence (P0AES4 whole entry, one chain of several): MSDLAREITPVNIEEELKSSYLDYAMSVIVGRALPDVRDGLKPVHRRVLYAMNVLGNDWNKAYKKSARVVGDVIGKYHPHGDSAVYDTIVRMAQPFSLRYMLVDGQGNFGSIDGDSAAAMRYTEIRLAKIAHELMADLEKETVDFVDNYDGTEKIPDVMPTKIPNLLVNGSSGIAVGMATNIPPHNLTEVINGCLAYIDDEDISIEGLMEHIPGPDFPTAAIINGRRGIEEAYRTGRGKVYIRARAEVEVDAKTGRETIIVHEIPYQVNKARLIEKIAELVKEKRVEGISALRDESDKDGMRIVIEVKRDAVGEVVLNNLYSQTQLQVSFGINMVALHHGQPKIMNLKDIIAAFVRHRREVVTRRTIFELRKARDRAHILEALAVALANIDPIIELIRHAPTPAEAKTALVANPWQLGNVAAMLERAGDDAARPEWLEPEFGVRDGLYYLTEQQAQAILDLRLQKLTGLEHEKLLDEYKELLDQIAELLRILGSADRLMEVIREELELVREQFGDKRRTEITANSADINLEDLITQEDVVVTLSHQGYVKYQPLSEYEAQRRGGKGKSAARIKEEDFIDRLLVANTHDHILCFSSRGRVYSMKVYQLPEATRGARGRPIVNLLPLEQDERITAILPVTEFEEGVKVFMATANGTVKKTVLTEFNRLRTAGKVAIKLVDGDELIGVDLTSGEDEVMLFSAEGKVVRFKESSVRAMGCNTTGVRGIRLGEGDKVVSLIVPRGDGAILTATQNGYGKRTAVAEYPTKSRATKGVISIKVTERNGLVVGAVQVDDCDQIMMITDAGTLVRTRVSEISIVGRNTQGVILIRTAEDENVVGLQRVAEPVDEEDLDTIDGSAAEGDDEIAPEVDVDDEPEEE

## C[C@H]1COc2c(N3CCN(C)CC3)c(F)cc3c(=O)c(C(=O)O)cn1c23 [Levofloxacin]
[1]
  Mechanism (DNA gyrase), already characterised inhibitors: Fluoroquinolone cleavage-complex stabiliser

## C[n+]1c2cc(N)ccc2cc2ccc(N)cc21 [Acriflavinium]
[2]
  Outcome in gyrase screen (hit threshold 25% inhibition): scored over the hit threshold
[1]
  Mechanism (DNA gyrase), already characterised inhibitors: ATPase inhibitor

## O=C1c2ccccc2C(=O)c2c(O)c(O)cc(O)c21 [Purpurin]
[3]
  Effect on binding of M. mazei topo VI to DNA: appeared to prevent the binding of topo VI to DNA; also recorded: appeared to prevent G-segment binding
[4]
  Inhibition in gel-based relaxation assay (hit validation): validated as hits
  IC50: 40 µM
  Mechanism (Topo VI): Blocks DNA binding
[5]
  Prevention of ADPNP-induced DNA cleavage by S. shibatae topo VI: marked ability to reduce the amount of cleavage

## CCn1cc(C(=O)O)c(=O)c2cc(F)c(N3CCNC(C)C3)c(F)c21 (stereo not drawn) [Lomefloxacin]
[1]
  Mechanism (DNA gyrase), already characterised inhibitors: Fluoroquinolone cleavage-complex stabiliser

## O=C(O)c1cn(-c2ccc(F)cc2)c2cc(N3CCNCC3)c(F)cc2c1=O [Surafloxacin]
[1]
  Mechanism (DNA gyrase), already characterised inhibitors: Fluoroquinolone cleavage-complex stabiliser

## COc1c(N2C[C@@H]3CCCN[C@@H]3C2)c(F)cc2c(=O)c(C(=O)O)cn(C3CC3)c12 [Moxifloxacin]
[1]
  Mechanism (DNA gyrase), already characterised inhibitors: Fluoroquinolone cleavage-complex stabiliser

## CCN(CC)CCCC(C)Nc1c2ccc(Cl)cc2nc2ccc(OC)cc12 (stereo not drawn) [Quinacrine]
[4]
  Inhibition in gel-based relaxation assay (hit validation): validated as hits
  IC50: 8 µM
  Mechanism (Topo VI): Prevents DNA cleavage
[5]
  Prevention of ADPNP-induced DNA cleavage by S. shibatae topo VI: appeared to prevent ADPNP-induced cleavage

## CCn1cc(C(=O)O)c(=O)c2cc(F)c(N3CCNCC3)cc21 [Norfloxacin]
[1]
  Mechanism (DNA gyrase), already characterised inhibitors: Fluoroquinolone cleavage-complex stabiliser

## CCn1nc(C(=O)O)c(=O)c2cc3c(cc21)OCO3 [cinoxacin]
[2]
  Outcome in gyrase screen (hit threshold 25% inhibition): missed by the screen

## CCn1cc(C(=O)O)c(=O)c2cc3c(cc21)OCO3 [oxolinic acid]
[2]
  Outcome in gyrase screen (hit threshold 25% inhibition): missed by the screen

## CCn1cc(C(=O)O)c(=O)c2ccc(C)nc21 [nalidixic acid]
[2]
  Outcome in gyrase screen (hit threshold 25% inhibition): missed by the screen

## CCn1cc(C(=O)O)c(=O)c2cc(F)c(N3CCNCC3)nc21 [enoxacin]
[2]
  Outcome in gyrase screen (hit threshold 25% inhibition): missed by the screen

## COc1cc(NS(C)(=O)=O)ccc1Nc1c2ccccc2nc2ccccc12 [m-Amsacrine]
[4]
  Inhibition in gel-based relaxation assay (hit validation): validated as hits
  IC50: 30 µM
  Mechanism (Topo VI): Prevents DNA cleavage

## O=C1c2c(O)ccc(O)c2C(=O)c2c(NCCNCCO)ccc(NCCNCCO)c21 [Mitoxantrone]
[6]
  Inhibition of growth / antimicrobial activity: no inhibition of growth
[7]
  Outcome in topo VI screen (hit threshold 25% inhibition): missed during the initial screen
[4]
  Inhibition in gel-based relaxation assay (hit validation): found to inhibit M. mazei topo VI
  IC50: 2 µM
  Mechanism (Topo VI): Prevents cleavage
[8]; 65 μM, grown in liquid media then plated onto drug-free agar
  Colony count relative to absence of drug: 2%
[8]; liquid broth / liquid cultures
  Inhibition of growth: strongly inhibited the growth; also recorded: found to inhibit the growth
[9]; 10 µM
  Induction of gyrase-mediated DNA cleavage: strongly induced DNA cleavage
[9]; 100 µM
  Ability to stabilise the gyrase cleavage complex: reduced
[5]
  Prevention of ADPNP-induced DNA cleavage by S. shibatae topo VI: appeared to prevent ADPNP-induced cleavage
[10]
  Inhibition of growth / antimicrobial activity: no inhibition of growth
[11]
  Inhibition in gel-based supercoiling assay (hit validation): displayed inhibition
[11]; gel supercoiling assay, 1 unit of gyrase (12 nM), read-out: Approx. IC50 against E. coli DNA gyrase
  IC50: 12 µM
[11]; summary of this study's mechanistic tests
  Mechanism (DNA gyrase): Cleavage-complex stabiliser

## Nc1c2ccccc2nc2ccccc12 [9-Aminoacridne, 9-aminoacridine]
[4]
  Inhibition in gel-based relaxation assay (hit validation): validated as hits
  IC50: 6 µM
  Mechanism (Topo VI): Prevents DNA cleavage
[5]
  Prevention of ADPNP-induced DNA cleavage by S. shibatae topo VI: appeared to prevent ADPNP-induced cleavage

## CC1COc2c(N3CCN(C)CC3)c(F)cc3c(=O)c(C(=O)O)cn1c23 (stereo not drawn) [Ofloxacin]
[1]
  Mechanism (DNA gyrase), already characterised inhibitors: Fluoroquinolone cleavage-complex stabiliser

## O=C(O)c1cn(C2CC2)c2cc(N3CCNCC3)c(F)cc2c1=O [Ciprofloxacin]
[1]
  Mechanism (DNA gyrase), already characterised inhibitors: Fluoroquinolone cleavage-complex stabiliser

## CCn1cc(C(=O)O)c(=O)c2cc(F)c(N3CCN(C)CC3)cc21.CS(=O)(=O)O [Perfloxacine Mesylate]
[1]
  Mechanism (DNA gyrase), already characterised inhibitors: Fluoroquinolone cleavage-complex stabiliser

## COc1c(N2CCNC(C)C2)c(F)cc2c(=O)c(C(=O)O)cn(C3CC3)c12 (stereo not drawn) [Gatifloxacin]
[1]
  Mechanism (DNA gyrase), already characterised inhibitors: Fluoroquinolone cleavage-complex stabiliser
